Measurements reported in patent publication US6569867B2, “Polyketide derivatives” (Kosan Biosciences, Inc., priority 1999, dated 2003).
Several values for one entry are separate records, joined by “and”; a condition that tells them apart may be missing. Equal entries are not always repeated. Where two headings read alike, the source gives them in different places.

Key:
FKBP-12 = biological target: T1, FKBP-12 (Homo sapiens, UniProt P62942); test: FKBP-12 binding assay ([3H]FK-506 competition)
T1 construct: purchased Sigma; host or cells: E. coli
Procedure: Calcineurin (“>95% pure by SDS/PAGE”) was obtained from Calbiochem. Neutravidin® coated strip plates, pre-blocked with SuperBlock® were obtained from Pierce. […] Synthetic RII peptide (^+[…]^-) was obtained from Peptides International (Louisville, […].com). […] ATP, cAMP, the catalytic subunit of protein kinase A, bovine brain calmodulin and human FKBP, expressed in E. coli were obtained from Sigma. […] The mixture was incubated for 2 hours at 0° C., the solution was aspirated from the wells, and each well was quickly washed with 300 uL of ice cold PBS-tween. Wells were broken apart, placed in scintillation vials with 10 mL of Scintiverse BD and bound radioactivity was quantitated by scintillation counting. […] to calculate the Kd.

Human 3A4 P-450 = biological target: T2, Human 3A4 P-450 (Homo sapiens, UniProt P08684); test: P450 stability assay with 3A4 P-450 supersomes; format: in vitro ADME; conditions: 20 μM FK species, 200 pmole P-450/mL, 37° C.
T2 construct: purchased Gentest Corporation (Woburn, Mass.) P207
Procedure: A mixture containing FK species and a NADPH regenerating system was pre-incubated at 37° C. for 10 minutes before the reaction was commenced by the addition of the P-450 supersomes. The final concentrations of the components were: 100 mM potassium phosphate, pH 7.4; 3.3 mM MgCl2; 3.3 mM glucose-6-phosphate; 1.3 mM NADP; 0.4 U/mL glucose-6-phosphate dehydrogenase; 200 pmole P-450/mL; and 20 μM FK species. Control reactions contained “mock” supersomes without 3A4 P-450 activity. Human 3A4 P-450+Reductase supersomes (cat #P207) and vector control “mock” supersomes without 3A4P-450 (cat #P201) were obtained from Gentest Corporation (Woburn, Mass.).
Following addition of supersomes or mock supersomes, reactions were terminated at 0 minutes (immediately upon addition of P-450) and 30 minutes by addition of acetonitrile containing 0.1% acetic acid to 20% final acetonitrile concentration, followed by freezing immediately on dry ice. For reactions containing the 13-desmethoxy-13-methyl-32-(2-hydroxyethylindolyl)-FK analog, an equal volume of MeOH was added following addition of acetonitrile and the samples were immediately frozen on dry ice. The samples were clarified by centrifugation at 13,000 rpm for 5 minutes at 4° C. in a micro centrifuge prior to HPLC analysis.
The following HPLC program was employed: Column =MetaChem 0.46×15 cm intersil C18 column (5 μm); Solvent A=0.1% HOAc in water; Solvent B=0.1 % HOAc in acetonitrile. Detection=UV (210 nm) and ELSD. Gradient: Equilibration with 20% B; injection (up to 1 ml), hold at 20% B for 5 minutes; linear gradient to 50% B in 5 minutes; linear gradient to 100% B in 20 minutes; to 20% B in 1 minute; hold at 20% B for 10 minutes to equilibrate.
There was no change in peak area after 30 minutes when the FK analogs were incubated with mock supersomes.

calcineurin = calcineurin (Bos taurus, UniProt P48452+P62942+P63099); test: Calcineurin phosphatase inhibition assay (FKBP-compound complex); format: biochemical; conditions: 15 nM calcineurin, 30 nM calmodulin, 1 uM phospho-RII peptide, 30° C.
Procedure: The catalytic subunit of protein kinase A was used to transfer the labeled phosphate from [γ-^32P]ATP to […] of the RII peptide. […] Fractions were collected and monitored by scintillation counting. […] The columns were prepared by resuspending the resin in water such that there was one volume of water above each volume of settled resin. The slurry (1 mL) was then pipetted into each column, followed by 10 mL of water. The bed volume was verified, then each column was washed with 1 mL 1 N NaOH, 2 mL 1 N HCl, and 4 mL water. Quenched reaction mixtures were applied to the columns, washed twice with 750 uL of water and the eluate was collected directly into scintillation vials. Scintiverse BD (15 mL) was added to each vial, and ^32PO4 was quantitated by scintillation counting. […] Following a 30 minute preincubation, reactions were initiated by addition of the phospho-RII peptide substrate to 1 uM and incubated at 30° C. Aliquots were removed at 3 and 35 minutes, quenched, and PO4 release was measured as described above.

[1] = cited from earlier work
[2] = test system: SH-SY5Y human neuroblastoma cells; test: Nerve growth (neurite length) assay; format: cell-based
Procedure: Table 9 summarizes the results of nerve growth as using SH-SY5Y human neuroblastoma cells according to Gold et al., Exp Neuro, 147(2): 269-87 (1997) which is incorporated herein by reference. The assay measures the mean neurite length in […] that were induced at 0.1 nM and 10 nM of the compound of interested after 96 or 168 hours.

Molecule | P450 % Stability (at 30 min) (Human 3A4 P-450) | Kd (FKBP-12) [nM] | Neurite Length at 0.1 nM 96 h [2] [µm] | Neurite Length at 0.1 nM 168 h [2] [µm] | further results
32-[1-(2-Hydroxyethyl)-indol-5-yl]-13-desmethoxy-FK-520 | 72% and 77% | – | – | – | Kd (FKBP-12; competition with 0.5 μM [3H]FK-506, 2 hours at 0° C., Kd of [3H]FK-506 assumed to be 0.4 nM): 16.3 nM and 10.4 nM; Ki (calcineurin): < 15 nM and 22 nM
C=CC[C@@H]1/C=C(\C)C[C@H](C)C[C@H](OC)[C@H]2O[C@@](O)(C(=O)C(=O)N3CCCC[C@H]3C(=O)O[C@H](/C(C)=C/[C@@H]3CC[C@@H](O)[C@H](OC)C3)[C@H](C)[C@@H](O)CC1=O)[C@H](C)C[C@@H]2OC.O [FK-506, tacrolimus] | – | – | – | – | excreted unchanged in urine ([1]; in vivo): less than 1%; half-life for distribution ([1]; in vivo): 54 min; bioavailability with co-administration of ketoconazole ([1]; ketoconazole, a drug that inhibits P450 3A): doubles; mean bioavailability of the oral dosage form ([1]; oral, range 5 to 65%): 27%
CC[C@@H]1/C=C(\C)C[C@H](C)C[C@H](OC)[C@@H]2CC[C@@H](C)[C@@](O)(O2)C(=O)C(=O)N2CCCC[C@H]2C(=O)O[C@H](/C(C)=C/[C@@H]2CC[C@@H](O)[C@H](OC)C2)[C@H](C)[C@@H](O)CC1=O [13-desmethoxy-FK-520] | 35% | 0.4 | – | – | –
18-ene-20-oxa-13-desmethoxy-13-methyl-FK-520 | – | – | 144 | 184 | Neurite Length at 10 nM 96 h [2]: 104 µm; Neurite Length at 10 nM 168 h [2]: 135 µm
CC[C@@H]1/C=C(\C)C(O)[C@H](C)C[C@H](OC)[C@H]2O[C@@](O)(C(=O)C(=O)N3CCCC[C@H]3C(=O)O[C@H](/C(C)=C/[C@@H]3CC[C@@H](O)[C@H](OC)C3)[C@H](C)[C@@H](O)CC1=O)[C@H](C)C[C@@H]2C (stereo partly drawn) [13-desmethoxy-13-methyl-18-hydroxyl-FK-520] | – | ~1 | 168 | 191 | Neurite Length at 10 nM 96 h [2]: 132 µm; Neurite Length at 10 nM 168 h [2]: 165 µm
CC[C@@H]1/C=C(\C)C[C@H](C)C[C@H](OC)[C@H]2O[C@@](O)(C(=O)C(=O)N3CCCC[C@H]3C(=O)O[C@H](/C(C)=C/[C@@H]3CC[C@@H](O)[C@H](OC)C3)[C@H](C)[C@@H](O)CC1=O)[C@H](C)C[C@@H]2C [13-desmethoxy-13-methyl-FK-520] | 26% | 1.6 | – | – | –
Nerve Growth Factor: protein neurotrophic molecule used as comparator in the neurite length assay | – | – | 143 | 169 | –
CC[C@@H]1/C=C(\C)C[C@H](C)C[C@H](OC)[C@H]2O[C@@](O)(C(=O)C(=O)N3CCCC[C@H]3C(=O)O[C@H](/C(C)=C/[C@@H]3CC[C@@H](O)[C@H](OC)C3)[C@H](C)[C@@H](O)CC1=O)[C@H](C)C[C@@H]2OC [FK-520, ascomycin, reference compound] | 46% | 0.4 | – | – | –
